Measurements taken from US20070032529A1, “Pyrazole compounds and their use as antidiabetes agents” (Japan Tobacco Inc., priority 2005, published 2007).
Like-named read-outs stand apart in the source and are kept apart here.

Target: T1, recombinant human liver glycogen phosphorylase (Homo sapiens, UniProt P06737)
T1 construct: made in house; host or cells: Sf9 insect cells (crude homogenate, diluted, used as the enzyme solution)
T1 sequence (P06737 1-847): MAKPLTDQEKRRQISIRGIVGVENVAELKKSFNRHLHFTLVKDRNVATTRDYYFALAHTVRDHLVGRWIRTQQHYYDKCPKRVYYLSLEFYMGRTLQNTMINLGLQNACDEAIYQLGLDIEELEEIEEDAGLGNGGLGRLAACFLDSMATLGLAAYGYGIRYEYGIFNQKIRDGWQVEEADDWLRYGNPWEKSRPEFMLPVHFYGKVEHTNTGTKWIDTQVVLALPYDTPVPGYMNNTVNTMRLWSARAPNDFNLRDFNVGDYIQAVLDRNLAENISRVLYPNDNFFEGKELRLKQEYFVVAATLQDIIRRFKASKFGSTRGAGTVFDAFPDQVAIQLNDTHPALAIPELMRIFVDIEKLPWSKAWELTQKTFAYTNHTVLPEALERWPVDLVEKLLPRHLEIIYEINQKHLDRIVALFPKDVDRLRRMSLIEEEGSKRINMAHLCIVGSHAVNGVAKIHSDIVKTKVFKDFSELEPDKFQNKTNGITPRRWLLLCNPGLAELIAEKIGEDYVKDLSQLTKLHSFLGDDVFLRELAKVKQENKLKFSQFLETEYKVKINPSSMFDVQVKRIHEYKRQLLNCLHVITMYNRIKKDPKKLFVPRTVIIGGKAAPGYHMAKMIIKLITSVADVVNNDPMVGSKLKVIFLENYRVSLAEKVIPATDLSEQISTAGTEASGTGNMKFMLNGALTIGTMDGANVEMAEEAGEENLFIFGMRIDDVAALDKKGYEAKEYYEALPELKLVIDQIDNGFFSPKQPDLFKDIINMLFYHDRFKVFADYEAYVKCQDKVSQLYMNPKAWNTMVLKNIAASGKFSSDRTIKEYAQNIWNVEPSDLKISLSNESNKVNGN
Test: Measuring liver glycogen phosphorylase activity (forward reaction system, NADPH absorbance at 340 nm)
Format: biochemical
Details: for inhibition at 1 µM: compound concentration 1000 nmol (in parentheses)
Outline: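 Compounds in 1% DMSO; activity taken as blank-subtracted 340 nm absorbance change across 75 min at room temperature. Forward reaction: glucose-1-phosphate released from glycogen converted by coupling enzymes, yielding NADPH; enzyme from recombinant Sf9 homogenate, reaction containing glucose, pH 6.8. IC50 from two-point linear interpolation.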

[1] = human liver glycogen phosphorylase, class symbol
[2] = compound concentration 100 nmol (in parentheses), read-out: inhibition rate (%) at a certain concentration
[3] = enzyme inhibitory activity with respect to liver glycogen phosphorylase, class symbols
[4] = figure in brackets (300), read-out: IC50 column: % value printed with (300)
[5] = compound concentration 300 nmol (in parentheses), read-out: inhibition rate (%) at a certain concentration
[6] = figure in brackets (100), read-out: IC50: % value given with (100)
[7] = read-out: inhibition rate (%) at a certain concentration

Row | IC50 [3] [nM] | Compound | other results
1 |  | O=C(NCc1ccnc(-c2noc(=O)[nH]2)c1)c1cc(NC(=O)c2cc(F)c(F)cc2Cl)[nH]n1 [Example 6-50] | IC50 [1]: < 100 nM
2 |  | CCCCN(C(=O)c1cc(NC(=O)c2cc(F)c(F)cc2Cl)[nH]n1)c1ccc(CC(=O)OCC)cc1 [Example 4-45] | inhibition at 0.1 µM [2]: 5.9%
3 |  | O=C(NCc1cccnc1)c1cc(NC(=O)c2ccc(Cl)cc2Cl)[nH]n1 [Example 7-3] | IC50 [1]: < 100 nM
4 |  | O=C(Nc1cccc2cnccc12)c1cc(NC(=O)c2cc(F)c(F)cc2Cl)[nH]n1 [Example 1-147] | inhibition at 0.1 µM [2]: 9.6%
5 |  | O=C(NCCc1cccnc1)c1cc(NC(=O)c2cc(F)c(F)cc2Cl)[nH]n1 [Example 1-140] | inhibition at 0.1 µM [2]: 30.8%
6 |  | CC(=N)Nc1cccc(CNC(=O)c2cc(NC(=O)c3cc(F)c(F)cc3Cl)[nH]n2)c1 [Example 6-31] | IC50 [1]: < 100 nM
7 | < 100 | CCCCN(C(=O)c1cc(NC(=O)c2cc(F)c(F)cc2Cl)[nH]n1)c1ccccc1 [Example 3-17] | 
8 | < 100 | Nc1cccc(CNC(=O)c2cc(NC(=O)c3cc(F)c(F)cc3Cl)[nH]n2)c1 [Example 3-30] | 
9 | < 100 | Cc1nc(-c2ccccc2)c(CNC(=O)c2cc(NC(=O)c3cc(F)c(F)cc3Cl)[nH]n2)o1 [Example 1-166] | 
10 |  | CN(C(=O)c1cc(NC(=O)c2cc(F)c(F)cc2Cl)[nH]n1)c1ccc(-c2nnc[nH]2)cc1 [Example 6-8] | inhibition at 0.3 µM [4]: 11.7%
11 | < 100 | CCOC(=O)CCN(Cc1ccccc1)C(=O)c1cc(NC(=O)c2cc(F)c(F)cc2Cl)[nH]n1 [Example 1-132] | 
12 | 100 to 300 | CN(C)c1ccccc1CNC(=O)c1cc(NC(=O)c2cc(F)c(F)cc2Cl)[nH]n1 [Example 1-10] | 
13 |  | CN(Cc1ccccc1)C(=O)c1cc(NC(=O)c2cc(F)c(F)cc2Cl)[nH]n1 [Example 3-1, 5-(2-chloro-4,5-difluoro-benzoylamino)-1H-pyrazole-3-carboxylic acid benzyl-methyl-amide] | inhibition at 0.49 µM (compound concentration 490 nmol (in parentheses), read-out: inhibition rate (%) at a certain concentration): 50%
14 |  | COCCN(Cc1ccccc1)C(=O)c1cc(NC(=O)c2cc(F)c(F)cc2Cl)[nH]n1 [Example 1-108] | inhibition at 0.3 µM [5]: 45.3%
15 | < 100 | NCc1ccnc(CNC(=O)c2cc(NC(=O)c3cc(F)c(F)cc3Cl)[nH]n2)c1 [Example 5-18] | 
16 | 100 to 300 | CCN(CC)C(=O)c1cccc(CNC(=O)c2cc(NC(=O)c3cc(F)c(F)cc3Cl)[nH]n2)c1 [Example 1-119] | 
17 | < 100 | Cc1nc(CNC(=O)c2cc(NC(=O)c3cc(F)c(F)cc3Cl)[nH]n2)c(C)s1 [Example 1-53] | 
18 | < 100 | O=C(NCc1csc(-c2ccccc2)n1)c1cc(NC(=O)c2cc(F)c(F)cc2Cl)[nH]n1 [Example 2-19] | 
19 |  | CN1CCC(N(C)C(=O)c2cc(NC(=O)c3cc(F)c(F)cc3Cl)[nH]n2)CC1 [Example 1-83] | inhibition at 0.3 µM [5]: 6.1%
20 |  | O=C(NCc1ccccc1)c1cc(NC(=O)c2ccc(F)cc2C(F)(F)F)[nH]n1 [Example 4-32] | inhibition at 0.3 µM [5]: 7.8%

Row | IC50 [3] [nM] | Compound | other results
21 |  | O=C(Nc1cc(C(=O)N2C=Nc3ccc(F)cc3C2)n[nH]1)c1cc(F)c(F)cc1Cl [Example 6-46] | IC50 [1]: < 100 nM
22 |  | O=C(NCc1ccccc1)c1cc(NC(=O)c2cc(Cl)ccc2F)[nH]n1 [Example 4-20] | inhibition at 0.3 µM [5]: 3.3%
23 | < 100 | CCCCCCc1nc(C)c(CNC(=O)c2cc(NC(=O)c3cc(F)c(F)cc3Cl)[nH]n2)o1 [Example 1-163] | 
24 |  | O=C(NCc1cccnc1)c1cc(NC(=O)c2sc(Cl)c(Cl)c2Cl)[nH]n1 [Example 7-14] | inhibition at 0.1 µM [6]: 4.6%
25 | < 100 | CCCN(C(=O)c1cc(NC(=O)c2cc(F)c(F)cc2Cl)[nH]n1)C1CCN(C(=O)CC(=O)O)CC1 [Example 1-124] | 
26 |  | O=C(NC1Cc2ccccc2C1)c1cc(NC(=O)c2cc(F)c(F)cc2Cl)[nH]n1 [Example 6-42] | inhibition at 0.1 µM [6]: 21.7%
27 |  | CCN(C=Nc1ccc(CNC(=O)c2cc(NC(=O)c3cc(F)c(F)cc3Cl)[nH]n2)cc1)CC [Example 6-29] | IC50 [1]: < 100 nM
28 |  | CCCCN(C(=O)c1cc(NC(=O)c2cc(F)c(F)cc2Cl)[nH]n1)C1CCNCC1 [Example 1-109] | inhibition at 0.3 µM [5]: 33.3%
29 |  | COC(=O)[C@@H](NC(=O)c1cc(NC(=O)c2cc(F)c(F)cc2Cl)[nH]n1)c1ccccc1 [Example 3-13] | inhibition at 1 µM [7]: 25.5%
30 |  | CC(C)(NC(=O)c1cc(NC(=O)c2cc(F)c(F)cc2Cl)[nH]n1)c1ccccc1 [Example 4-10] | inhibition at 0.59 µM (compound concentration 590 nmol (in parentheses), read-out: inhibition rate (%) at a certain concentration): 50%
31 | < 100 | CC(=O)OCCN(CCNC(=O)c1ccc(CNC(=O)c2cc(NC(=O)c3cc(F)c(F)cc3Cl)[nH]n2)cc1)CCOC(C)=O [Example 1-47] | 
32 | < 100 | O=C(NCc1ccc(Oc2ccccc2)nc1)c1cc(NC(=O)c2cc(F)c(F)cc2Cl)[nH]n1 [Example 2-22] | 
33 | < 100 | COc1ccc(CNC(=O)c2cc(NC(=O)c3ccc(Cl)cc3Cl)[nH]n2)cn1 [Example 3-50] | 
34 | < 100 | CCOC(=O)CCCN(C(=O)c1cc(NC(=O)c2cc(F)c(F)cc2Cl)[nH]n1)c1ccccc1 [Example 4-26] | 
35 | < 100 | COC(=O)CCN(C(=O)c1cc(NC(=O)c2cc(F)c(F)cc2Cl)[nH]n1)c1ccccc1 [Example 4-25] | 
36 |  | O=C(Nc1cc(C(=O)N2CCC(C(=O)O)CC2)n[nH]1)c1cc(F)c(F)cc1Cl [Example 3-8] | inhibition at 1 µM [7]: 11.7%
37 | < 100 | CCN(CC)C(=O)c1cc(NC(=O)c2cc(F)c(F)cc2Cl)[nH]n1 [Example 1-4] | 
38 | < 100 | Cc1ccc(CNC(=O)c2cc(NC(=O)c3cc(F)c(F)cc3Cl)[nH]n2)c(=O)[nH]1 [Example 2-33] | 
39 |  | O=C(NCCc1ccccc1)c1cc(NC(=O)c2cc(F)c(F)cc2Cl)[nH]n1 [Example 3-9] | inhibition at 0.48 µM (compound concentration 480 nmol (in parentheses), read-out: inhibition rate (%) at a certain concentration): 50%
40 | < 100 | Cc1nc(CNC(=O)c2cc(NC(=O)c3cc(F)c(F)cc3Cl)[nH]n2)cs1 [Example 1-45] | 

Row | IC50 [3] [nM] | Compound | other results
41 | < 100 | O=C(NCc1ncccc1C(F)(F)F)c1cc(NC(=O)c2cc(F)c(F)cc2Cl)[nH]n1 [Example 1-27] | 
42 |  | CC(=Nc1ccc(CNC(=O)c2cc(NC(=O)c3cc(F)c(F)cc3Cl)[nH]n2)cc1)N(C)C [Example 6-26] | IC50 [1]: < 100 nM
43 | < 100 | O=C(Nc1cc(C(=O)N(CC(=O)N2CCCCC2)c2ccccc2)n[nH]1)c1cc(F)c(F)cc1Cl [Example 4-11] | 
44 |  | Cc1cc(F)c(F)cc1C(=O)Nc1cc(C(=O)NCc2ccnc(-c3nnn[nH]3)c2)n[nH]1 [Example 7-16] | IC50 [1]: < 100 nM
45 | < 100 | CCc1nc(C)oc1CNC(=O)c1cc(NC(=O)c2cc(F)c(F)cc2Cl)[nH]n1 [Example 1-157] | 
46 | < 100 | O=C(NCC1CCCCC1)c1cc(NC(=O)c2cc(F)c(F)cc2Cl)[nH]n1 [Example 1-76] | 
47 | 100 to 300 | COCCNC(=O)c1cc(NC(=O)c2cc(F)c(F)cc2Cl)[nH]n1 [Example 1-106] | 
48 | < 100 | Cc1nn(-c2ccccc2)nc1CNC(=O)c1cc(NC(=O)c2cc(F)c(F)cc2Cl)[nH]n1 [Example 1-61] | 
49 |  | CN(C(=O)c1cc(NC(=O)c2cc(F)c(F)cc2Cl)[nH]n1)c1ccc(C#N)cc1 [Example 6-7] | inhibition at 0.3 µM [4]: 12.9%
50 | < 100 | O=C(NCc1ccc(-c2ccccc2)nc1)c1cc(NC(=O)c2cc(F)c(F)cc2Cl)[nH]n1 [Example 2-32] | 
51 |  | O=C(Nc1cc(C(=O)N2CCc3ccccc3C2)n[nH]1)c1cc(F)c(F)cc1Cl [Example 3-12] | inhibition at 0.4 µM (compound concentration 400 nmol (in parentheses), read-out: inhibition rate (%) at a certain concentration): 50%
52 |  | CC(=Nc1cccc(CNC(=O)c2cc(NC(=O)c3cc(F)c(F)cc3Cl)[nH]n2)c1)N(C)C [Example 6-25] | IC50 [1]: < 100 nM
53 | < 100 | COc1cc(CNC(=O)c2cc(NC(=O)c3cc(F)c(F)cc3Cl)[nH]n2)cc(OC)c1 [Example 1-16] | 
54 | 100 to 300 | O=C(NCc1ccccc1)c1cc(NC(=O)c2ccc(F)cc2Cl)[nH]n1 [Example 4-6] | 
55 |  | CC(NC(=O)c1cc(NC(=O)c2cc(F)c(F)cc2Cl)[nH]n1)c1cccnc1 (stereo not shown) [Example 2-26] | inhibition at 0.1 µM [2]: 36.4%
56 | < 100 | O=C(NCc1cnccn1)c1cc(NC(=O)c2cc(F)c(F)cc2Cl)[nH]n1 [Example 1-152] | 
57 | 100 to 300 | CCCN(C(=O)c1cc(NC(=O)c2cc(F)c(F)cc2Cl)[nH]n1)C1CCC(C(=O)OCC)CC1 (stereo not shown) [Example 1-11] | 
58 |  | Cc1cc(F)c(F)cc1C(=O)Nc1cc(C(=O)NCc2ccnc(C#N)c2)n[nH]1 [Example 7-15] | IC50 [1]: < 100 nM
